Measurements taken from PubChem BioAssay AID1845196 (Molecular Pharmacology Branch, DTP, NCI, 2023).

System: 292921-168-R tumor spheroid viability
Test: Anticancer human tumor 292921-168-R patient-derived pancreatic carcinoma cell line growth inhibition
Conditions: spheroids with HUVEC and MSC; for IC50: curve of first compound; for viability, T/C: stronger effect = lower value
Summary of the method: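 Single agents and combinations were tested on spheroids built from tumor cells plus HUVEC and hMSC, at half-log dilutions starting at or near clinical Cmax, else 10 microM; final DMSO 0.25% (v/v).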
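Also: spheroids exposed to compounds for 7 days.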

## COc1cc(C)[nH]c(=O)c1CN1CCc2c(Cl)cc(C(OC)C3COC3)c(Cl)c2C1=O (stereo not given) + COc1cc2c(cc1O)CCNC21CSC2c3c(OC(C)=O)c(C)c4c(c3C(COC1=O)N1C(O)C3Cc5cc(C)c(OC)c(O)c5C(C21)N3C)OCO4
Second compound 30 pM
  IC50: > 10000 nM
Second compound 94.9 pM
  IC50: > 10000 nM
Second compound 0.0003 µM
  IC50: 3680 nM
Second compound 0.000949 µM
  IC50: < 31.6 nM
Second compound 0.003 µM
  IC50: < 31.6 nM
Second compound 30 pM, first compound 0.0316 µM
  viability, T/C: 117%
Second compound 30 pM, first compound 0.1 µM
  viability, T/C: 116%
Second compound 30 pM, first compound 0.316 µM
  viability, T/C: 110%
Second compound 30 pM, first compound 1 µM
  viability, T/C: 114%
Second compound 30 pM, first compound 3.16 µM
  viability, T/C: 110%
Second compound 30 pM, first compound 10 µM
  viability, T/C: 92.4%
Second compound 94.9 pM, first compound 0.0316 µM
  viability, T/C: 117%
Second compound 94.9 pM, first compound 0.1 µM
  viability, T/C: 101%
Second compound 94.9 pM, first compound 0.316 µM
  viability, T/C: 117%
Second compound 94.9 pM, first compound 1 µM
  viability, T/C: 112%
Second compound 94.9 pM, first compound 3.16 µM
  viability, T/C: 94.8%
Second compound 94.9 pM, first compound 10 µM
  viability, T/C: 97.3%
Second compound 0.0003 µM, first compound 0.0316 µM
  viability, T/C: 49.4%
Second compound 0.0003 µM, first compound 0.1 µM
  viability, T/C: 53.3%
Second compound 0.0003 µM, first compound 0.316 µM
  viability, T/C: 54.1%
Second compound 0.0003 µM, first compound 1 µM
  viability, T/C: 58.3%
Second compound 0.0003 µM, first compound 3.16 µM
  viability, T/C: 51.2%
Second compound 0.0003 µM, first compound 10 µM
  viability, T/C: 36.5%
Second compound 0.000949 µM, first compound 0.0316 µM
  viability, T/C: 6.67%
Second compound 0.000949 µM, first compound 0.1 µM
  viability, T/C: 3.7%
Second compound 0.000949 µM, first compound 0.316 µM
  viability, T/C: 4.01%
Second compound 0.000949 µM, first compound 1 µM
  viability, T/C: 3.27%
Second compound 0.000949 µM, first compound 3.16 µM
  viability, T/C: 2.1%
Second compound 0.000949 µM, first compound 10 µM
  viability, T/C: 1.64%
Second compound 0.003 µM, first compound 0.0316 µM
  viability, T/C: 0.15%
Second compound 0.003 µM, first compound 0.1 µM
  viability, T/C: 0.14%
Second compound 0.003 µM, first compound 0.316 µM
  viability, T/C: 0.13%
Second compound 0.003 µM, first compound 1 µM
  viability, T/C: 0.14%
Second compound 0.003 µM, first compound 3.16 µM
  viability, T/C: 0.2%
Second compound 0.003 µM, first compound 10 µM
  viability, T/C: 0.26%

## Cc1sc2c(c1C)C(c1ccc(Cl)cc1)=NC(CC(=O)Nc1ccc(O)cc1)c1nnc(C)n1-2 (stereo not given) + CC[C@@]1(O)C(=O)OCc2c1cc1n(c2=O)Cc2cc3c(CN(C)C)c(O)ccc3nc2-1
Second compound 0.003 µM
  IC50: 389 nM
Second compound 0.00949 µM
  IC50: 449 nM
Second compound 0.03 µM
  IC50: < 9.49 nM
Second compound 0.0949 µM
  IC50: < 9.49 nM
Second compound 0.3 µM
  IC50: < 9.49 nM
Second compound 0.003 µM, first compound 0.00949 µM
  viability, T/C: 92.5%
Second compound 0.003 µM, first compound 0.03 µM
  viability, T/C: 67.6%
Second compound 0.003 µM, first compound 0.0949 µM
  viability, T/C: 62%
Second compound 0.003 µM, first compound 0.3 µM
  viability, T/C: 57.6%
Second compound 0.003 µM, first compound 0.949 µM
  viability, T/C: 44.1%
Second compound 0.003 µM, first compound 3 µM
  viability, T/C: 28.5%
Second compound 0.00949 µM, first compound 0.00949 µM
  viability, T/C: 81.1%
Second compound 0.00949 µM, first compound 0.03 µM
  viability, T/C: 67.4%
Second compound 0.00949 µM, first compound 0.0949 µM
  viability, T/C: 63.8%
Second compound 0.00949 µM, first compound 0.3 µM
  viability, T/C: 56.3%
Second compound 0.00949 µM, first compound 0.949 µM
  viability, T/C: 43.5%
Second compound 0.00949 µM, first compound 3 µM
  viability, T/C: 21.6%
Second compound 0.03 µM, first compound 0.00949 µM
  viability, T/C: 31.5%
Second compound 0.03 µM, first compound 0.03 µM
  viability, T/C: 31.4%
Second compound 0.03 µM, first compound 0.0949 µM
  viability, T/C: 29.6%
Second compound 0.03 µM, first compound 0.3 µM
  viability, T/C: 25%
Second compound 0.03 µM, first compound 0.949 µM
  viability, T/C: 13.8%
Second compound 0.03 µM, first compound 3 µM
  viability, T/C: 2.79%
Second compound 0.0949 µM, first compound 0.00949 µM
  viability, T/C: 9.7%
Second compound 0.0949 µM, first compound 0.03 µM
  viability, T/C: 8.41%
Second compound 0.0949 µM, first compound 0.0949 µM
  viability, T/C: 6.38%
Second compound 0.0949 µM, first compound 0.3 µM
  viability, T/C: 3.78%
Second compound 0.0949 µM, first compound 0.949 µM
  viability, T/C: 1.73%
Second compound 0.0949 µM, first compound 3 µM
  viability, T/C: 1.06%
Second compound 0.3 µM, first compound 0.00949 µM
  viability, T/C: 4.29%
Second compound 0.3 µM, first compound 0.03 µM
  viability, T/C: 3.58%
Second compound 0.3 µM, first compound 0.0949 µM
  viability, T/C: 3.16%
Second compound 0.3 µM, first compound 0.3 µM
  viability, T/C: 1.72%
Second compound 0.3 µM, first compound 0.949 µM
  viability, T/C: 0.92%
Second compound 0.3 µM, first compound 3 µM
  viability, T/C: 0.66%
